Measurements: PubChem BioAssay (NCI)
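1) Cells in 96-well plates. 2) Compound, 48 h, 5 concentrations. 3) Linear interpolation between surrounding doses. 4) Unreached endpoint = highest concentration. GI50 is the concentration that inhibits growth by half. TGI: total growth inhibition.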

How the values were obtained:
Experiment in all cases: NCI tumour cell line growth inhibition, 48 h
786-0 renal = tested on: 786-0 renal
A498 renal = tested on: A498 renal
A549 NSCLC = tested on: A549 NSCLC
ACHN renal = tested on: ACHN renal
BT-549 breast = tested on: BT-549 breast
CAKI-1 renal = tested on: CAKI-1 renal
CCRF-CEM leukemia = tested on: CCRF-CEM leukemia
COLO 205 colon = tested on: COLO 205 colon
DU-145 prostate = tested on: DU-145 prostate
EKVX NSCLC = tested on: EKVX NSCLC
HCC-2998 colon = tested on: HCC-2998 colon
HCT-116 colon = tested on: HCT-116 colon
HCT-15 colon = tested on: HCT-15 colon
HL-60(TB) leukemia = tested on: HL-60(TB) leukemia
HOP-62 NSCLC = tested on: HOP-62 NSCLC
HOP-92 NSCLC = tested on: HOP-92 NSCLC
HS 578T breast = tested on: HS 578T breast
HT29 colon = tested on: HT29 colon
IGROV1 ovarian = tested on: IGROV1 ovarian
K-562 leukemia = tested on: K-562 leukemia
KM12 colon = tested on: KM12 colon
LOX IMVI melanoma = tested on: LOX IMVI melanoma
M14 melanoma = tested on: M14 melanoma
MALME-3M melanoma = tested on: MALME-3M melanoma
MCF7 breast = tested on: MCF7 breast
MDA-MB-231 breast = tested on: MDA-MB-231 breast
MDA-MB-435 = tested on: MDA-MB-435
MOLT-4 leukemia = tested on: MOLT-4 leukemia
NCI-H226 lung = tested on: NCI-H226 lung
NCI-H23 lung = tested on: NCI-H23 lung
NCI-H460 lung = tested on: NCI-H460 lung
NCI-H522 lung = tested on: NCI-H522 lung
NCI/ADR-RES ovarian = tested on: NCI/ADR-RES ovarian
OVCAR-3 ovarian = tested on: OVCAR-3 ovarian
OVCAR-4 ovarian = tested on: OVCAR-4 ovarian
OVCAR-5 ovarian = tested on: OVCAR-5 ovarian
OVCAR-8 ovarian = tested on: OVCAR-8 ovarian
PC-3 prostate = tested on: PC-3 prostate
RPMI-8226 leukemia = tested on: RPMI-8226 leukemia
RXF 393 renal = tested on: RXF 393 renal
SF-268 CNS = tested on: SF-268 CNS
SF-295 CNS = tested on: SF-295 CNS
SF-539 CNS = tested on: SF-539 CNS
SK-MEL-2 melanoma = tested on: SK-MEL-2 melanoma
SK-MEL-28 melanoma = tested on: SK-MEL-28 melanoma
SK-MEL-5 melanoma = tested on: SK-MEL-5 melanoma
SK-OV-3 ovarian = tested on: SK-OV-3 ovarian
SN12C renal = tested on: SN12C renal
SNB-19 CNS = tested on: SNB-19 CNS
SNB-75 CNS = tested on: SNB-75 CNS
SR leukemia = tested on: SR leukemia
SW-620 colon = tested on: SW-620 colon
T-47D breast = tested on: T-47D breast
TK-10 renal = tested on: TK-10 renal
U251 CNS = tested on: U251 CNS
UACC-257 melanoma = tested on: UACC-257 melanoma
UACC-62 melanoma = tested on: UACC-62 melanoma

**Q.** For `CC1=C(CN(O)C(N)=O)C2=C(C)C3(CC3)[C@@](C)(O)C(=O)C2=C1`, which GI50 (786-0 renal) is on record?
**A.** 0.343 µM

**Q.** What about the GI50 (A498 renal) of the same compound?
**A.** 0.175 µM

**Q.** And the TGI (A498 renal)?
**A.** 0.359 µM

**Q.** What about the GI50 (A549 NSCLC) of the same compound?
**A.** 0.118 µM

**Q.** What about the TGI (A549 NSCLC) of the same compound?
**A.** 1.22 µM

**Q.** What about the GI50 (ACHN renal) of the same compound?
**A.** 0.236 µM

**Q.** What about the TGI (ACHN renal) of the same compound?
**A.** 0.572 µM

**Q.** And the GI50 (BT-549 breast)?
**A.** 0.367 µM

**Q.** And the TGI (BT-549 breast)?
**A.** 1.59 µM

**Q.** What about the GI50 (CAKI-1 renal) of the same compound?
**A.** 0.253 µM

**Q.** And the TGI (CAKI-1 renal)?
**A.** 1.35 µM

**Q.** And the GI50 (CCRF-CEM leukemia)?
**A.** 29.6 µM

**Q.** And the TGI (CCRF-CEM leukemia)?
**A.** > 100 µM

**Q.** And the GI50 (COLO 205 colon)?
**A.** 0.185 µM

**Q.** And the TGI (COLO 205 colon)?
**A.** 0.517 µM

**Q.** What about the GI50 (DU-145 prostate) of the same compound?
**A.** 0.0439 µM

**Q.** What about the TGI (DU-145 prostate) of the same compound?
**A.** 1.11 µM

**Q.** And the GI50 (EKVX NSCLC)?
**A.** 0.346 µM

**Q.** What about the TGI (EKVX NSCLC) of the same compound?
**A.** 1.53 µM

**Q.** What about the GI50 (HCC-2998 colon) of the same compound?
**A.** 0.174 µM

**Q.** And the TGI (HCC-2998 colon)?
**A.** 0.414 µM

**Q.** What about the GI50 (HCT-116 colon) of the same compound?
**A.** 0.267 µM

**Q.** What about the GI50 (HCT-15 colon) of the same compound?
**A.** 0.267 µM

**Q.** And the TGI (HCT-15 colon)?
**A.** 0.883 µM

**Q.** What about the GI50 (HL-60(TB) leukemia) of the same compound?
**A.** 0.279 µM

**Q.** What about the TGI (HL-60(TB) leukemia) of the same compound?
**A.** 3.55 µM

**Q.** And the GI50 (HOP-62 NSCLC)?
**A.** 0.178 µM

**Q.** And the TGI (HOP-62 NSCLC)?
**A.** 0.996 µM

**Q.** And the GI50 (HOP-92 NSCLC)?
**A.** 0.208 µM

**Q.** And the TGI (HOP-92 NSCLC)?
**A.** 0.618 µM

**Q.** And the GI50 (HS 578T breast)?
**A.** 0.503 µM

**Q.** What about the TGI (HS 578T breast) of the same compound?
**A.** 3 µM

**Q.** And the GI50 (HT29 colon)?
**A.** 0.316 µM

**Q.** And the TGI (HT29 colon)?
**A.** > 34.5 µM

**Q.** And the GI50 (IGROV1 ovarian)?
**A.** 0.208 µM

**Q.** What about the TGI (IGROV1 ovarian) of the same compound?
**A.** 0.94 µM

**Q.** And the GI50 (K-562 leukemia)?
**A.** 16.3 µM

**Q.** What about the TGI (K-562 leukemia) of the same compound?
**A.** > 100 µM

**Q.** What about the GI50 (KM12 colon) of the same compound?
**A.** 0.53 µM

**Q.** And the TGI (KM12 colon)?
**A.** 5.41 µM

**Q.** And the GI50 (LOX IMVI melanoma)?
**A.** 0.402 µM

**Q.** What about the TGI (LOX IMVI melanoma) of the same compound?
**A.** 2.04 µM

**Q.** What about the GI50 (M14 melanoma) of the same compound?
**A.** 0.269 µM

**Q.** What about the TGI (M14 melanoma) of the same compound?
**A.** 0.699 µM

**Q.** And the GI50 (MALME-3M melanoma)?
**A.** 0.205 µM

**Q.** And the TGI (MALME-3M melanoma)?
**A.** 0.424 µM

**Q.** What about the GI50 (MCF7 breast) of the same compound?
**A.** 0.921 µM

**Q.** And the TGI (MCF7 breast)?
**A.** 10.1 µM

**Q.** And the GI50 (MDA-MB-231 breast)?
**A.** 0.324 µM

**Q.** What about the TGI (MDA-MB-231 breast) of the same compound?
**A.** 1.78 µM

**Q.** And the GI50 (MDA-MB-435)?
**A.** 0.662 µM

**Q.** And the TGI (MDA-MB-435)?
**A.** 2.37 µM

**Q.** And the GI50 (MOLT-4 leukemia)?
**A.** 21.3 µM

**Q.** And the TGI (MOLT-4 leukemia)?
**A.** > 100 µM

**Q.** And the GI50 (NCI-H226 lung)?
**A.** 0.235 µM

**Q.** And the TGI (NCI-H226 lung)?
**A.** 0.644 µM

**Q.** What about the GI50 (NCI-H23 lung) of the same compound?
**A.** 0.109 µM

**Q.** And the TGI (NCI-H23 lung)?
**A.** 0.544 µM

**Q.** What about the GI50 (NCI-H460 lung) of the same compound?
**A.** 0.0452 µM

**Q.** What about the TGI (NCI-H460 lung) of the same compound?
**A.** 0.909 µM

**Q.** And the GI50 (NCI-H522 lung)?
**A.** 1.23 µM

**Q.** What about the TGI (NCI-H522 lung) of the same compound?
**A.** 4.65 µM

**Q.** And the GI50 (NCI/ADR-RES ovarian)?
**A.** 0.381 µM

**Q.** And the TGI (NCI/ADR-RES ovarian)?
**A.** 3.11 µM

**Q.** And the GI50 (OVCAR-3 ovarian)?
**A.** 0.26 µM

**Q.** What about the TGI (OVCAR-3 ovarian) of the same compound?
**A.** 0.769 µM

**Q.** What about the GI50 (OVCAR-4 ovarian) of the same compound?
**A.** 0.285 µM

**Q.** What about the TGI (OVCAR-4 ovarian) of the same compound?
**A.** 1.55 µM

**Q.** What about the GI50 (OVCAR-5 ovarian) of the same compound?
**A.** 0.367 µM

**Q.** And the TGI (OVCAR-5 ovarian)?
**A.** 2.27 µM

**Q.** What about the GI50 (OVCAR-8 ovarian) of the same compound?
**A.** 0.337 µM

**Q.** What about the TGI (OVCAR-8 ovarian) of the same compound?
**A.** 6.68 µM

**Q.** And the GI50 (PC-3 prostate)?
**A.** 0.398 µM

**Q.** And the TGI (PC-3 prostate)?
**A.** 5.24 µM

**Q.** And the GI50 (RPMI-8226 leukemia)?
**A.** 7.19 µM

**Q.** And the TGI (RPMI-8226 leukemia)?
**A.** > 100 µM

**Q.** And the GI50 (RXF 393 renal)?
**A.** 0.141 µM

**Q.** What about the TGI (RXF 393 renal) of the same compound?
**A.** 0.29 µM

**Q.** And the GI50 (SF-268 CNS)?
**A.** 0.236 µM

**Q.** What about the TGI (SF-268 CNS) of the same compound?
**A.** 1.56 µM

**Q.** What about the GI50 (SF-295 CNS) of the same compound?
**A.** 0.252 µM

**Q.** And the TGI (SF-295 CNS)?
**A.** 1.16 µM

**Q.** And the GI50 (SF-539 CNS)?
**A.** 0.216 µM

**Q.** And the TGI (SF-539 CNS)?
**A.** 0.556 µM

**Q.** And the GI50 (SK-MEL-2 melanoma)?
**A.** 0.356 µM

**Q.** What about the TGI (SK-MEL-2 melanoma) of the same compound?
**A.** 1.21 µM

**Q.** And the GI50 (SK-MEL-28 melanoma)?
**A.** 0.229 µM

**Q.** What about the TGI (SK-MEL-28 melanoma) of the same compound?
**A.** 0.505 µM

**Q.** And the GI50 (SK-MEL-5 melanoma)?
**A.** 0.195 µM

**Q.** And the TGI (SK-MEL-5 melanoma)?
**A.** 0.409 µM

**Q.** And the GI50 (SK-OV-3 ovarian)?
**A.** 0.305 µM

**Q.** What about the TGI (SK-OV-3 ovarian) of the same compound?
**A.** 1.09 µM

**Q.** What about the GI50 (SN12C renal) of the same compound?
**A.** 0.373 µM

**Q.** What about the TGI (SN12C renal) of the same compound?
**A.** 2.67 µM

**Q.** And the GI50 (SNB-19 CNS)?
**A.** 0.469 µM

**Q.** What about the TGI (SNB-19 CNS) of the same compound?
**A.** 6.18 µM

**Q.** What about the GI50 (SNB-75 CNS) of the same compound?
**A.** 0.215 µM

**Q.** And the TGI (SNB-75 CNS)?
**A.** 0.464 µM

**Q.** And the GI50 (SR leukemia)?
**A.** 7.6 µM

**Q.** What about the TGI (SR leukemia) of the same compound?
**A.** > 80.9 µM

**Q.** And the GI50 (SW-620 colon)?
**A.** 10.8 µM

**Q.** And the TGI (SW-620 colon)?
**A.** > 100 µM

**Q.** What about the GI50 (T-47D breast) of the same compound?
**A.** 0.214 µM

**Q.** What about the TGI (T-47D breast) of the same compound?
**A.** 1.72 µM

**Q.** What about the GI50 (TK-10 renal) of the same compound?
**A.** 0.308 µM

**Q.** And the TGI (TK-10 renal)?
**A.** 0.909 µM

**Q.** And the GI50 (U251 CNS)?
**A.** 0.337 µM

**Q.** What about the GI50 (UACC-257 melanoma) of the same compound?
**A.** 0.28 µM

**Q.** And the TGI (UACC-257 melanoma)?
**A.** 0.765 µM

**Q.** What about the GI50 (UACC-62 melanoma) of the same compound?
**A.** 0.224 µM

**Q.** What about the TGI (UACC-62 melanoma) of the same compound?
**A.** 0.562 µM
